Measured values from article PMC8398766, “Do Small Molecules Activate the TrkB Receptor in the Same Manner as BDNF? Limitations of Published TrkB Low Molecular Agonists and Screening for Novel TrkB Orthosteric Agonists” (Pharmaceuticals, 2021).
pKd: −log10 of the molar value.

Legend:
[1] = Chemical stability pH 7.4; assay type: physicochemical; details: pH = 7.4, 4 h
[2] = Metabolic stability in human liver microsomes; details: for Metabolic stability in HLM (classification): compared with verapamil; for Clint HLM: 1 μM, phase I
[3] = molecular target: T1, exTrkB (Homo sapiens, UniProt Q16620); assay: MST binding affinity (Kd) determination
T1 construct: human TrkB receptor (exTrkB), residues 1−430, was cloned into the pCMV2 expression vector; made in house; host or cells: ExpiCHO-S cells
Method: The gene encoding the extracellular domain of the human TrkB receptor (exTrkB), residues 1−430, was cloned into the pCMV2 expression vector. Protein expression was performed in suspension-cultivated mammalian ExpiCHO-S cells using the ExpiFectamine (Thermo Scientific, Thermo Fisher Scientific, Waltham, MA, USA) transfection reagent. The secreted protein was purified using a four-step protocol. Clarified culture medium was precipitated with ammonium sulfate added to a final concentration of 1.5 M and centrifuged (235,000× g, 60 min at 4 °C). The supernatant after centrifugation was applied on a HiTrap Phenyl column (GE Healthcare, Chicago, IL, USA) equilibrated with buffer A (25 mM Tris, 1 mM DTT; pH 7.5) with 1.5 M ammonium sulfate. Bound proteins were eluted with a linear gradient of buffer A. The eluted proteins were dialyzed overnight in buffer A and loaded on a CaptoQ ImpRes column (GE Healthcare) equilibrated with buffer A with 50 mM NaCl. The bound proteins were eluted with a linear gradient of buffer A with 1 M NaCl. The fractions containing exTrkB protein were pooled, and MnCl2 and CaCl2 (1mM final concentration each) were added. The sample was purified on a HiTrap Con A 4B column (GE Healthcare) equilibrated with buffer B (25 mM Tris, 0.5 M NaCl, 1 mM MnCl2, 1 mM CaCl2; pH 7.5) and eluted with buffer C (25 mM Tris, 0.1 M NaCl, 0.4 M α-D-glucopyranoside; pH 6.5). To improve the protein recovery, buffer C flow was paused nine times during elution. The eluted fractions were concentrated and purified by size-exclusion chromatography on a HiLoad 16/600 Superdex 200 column (GE Healthcare) in buffer A with 0.5 M NaCl. The protein samples were concentrated to 1 mg/mL, and buffer was exchanged (PBS; pH 7.4). Samples were frozen in liquid nitrogen and stored at −80 °C. The protein purity was estimated by SDS–PAGE followed by Coomassie Brilliant Blue staining. The protein concentration was determined from the absorption at 280 nm using an UV NanoDrop 1000 spectrophotometer (Thermo Scientific).
The exTrkB was labeled with a Monolith Protein Labeling Kit RED-NHS 2nd Generation (NanoTemper Technologies GmbH, Munich, Germany) according to the manufacturer’s protocol. The labelling efficiency was always determined spectrophotometrically with NanoPhotometer® NP80 (Impel) in line with the manufacturer’s recommendations. Labelled exTrkB protein was aliquoted and stored at −80 °C to avoid repeated freeze–thaw cycles. Before analysis, the exTrkB protein was thawed on ice and diluted with MST buffer (50 mM Tris pH = 8; 150 mM NaCl; 10 mM MgCl2; 0.1% Tween20) to the desired concentration.
For primary screening (single-point MST experiments for signal amplitude determination), each of the 987 screened compounds were diluted in MST buffer + 0.1% Tween20 to a final concentration of 0.5 mM. The tested compounds were mixed with exTrkB solution (the final concentration of exTrkB was 20 nM) and centrifuged (10,000× g, 4 min at 4 °C) to eliminate protein and compound aggregates. Before loading to capillaries (Monolith NT.115 Capillaries, NanoTemper Technologies GmbH), the samples were incubated for 5 min at 25 °C and then placed into the MST apparatus (Monolith, NanoTemper Technologies GmbH). The experiments were performed using nano-blue excitation, LED light adjusted to 20% excitation power, and MST power set to medium, and the fluorescence signal during thermophoresis was detected after 30 s. Single-point MST experiments were performed by the determination of the amplitude signal between the unbound and bound state between the molecule and exTrkB, which was analyzed using the MO.Control Software version 1.6 (NanoTemper Technologies GmbH). A reference sample containing only exTrkB and the equivalent DMSO concentration (v/v) was included in each individual MST experiment. At least three technical replicates were prepared for each of the tested compounds. A binding affinity study was performed for 113 of the selected compounds at 16 concentration points. […]

[4] = molecular target: T2, TrkB receptor (Rattus norvegicus, UniProt Q63604); assay: ELFI TrkB phosphorylation, orthosteric agonist mode, SN56 T48 cell line; assay type: cell-based; details: 0.125–100 μM, 15 min
T2 construct: host or cells: SN56 T48 cell line
Method: The SN56 T48 cell line with stable overexpression of the TrkB receptor was purchased from Emory University (Atlanta, GA, USA) and cultivated according to the protocol described in Jang et al., 2010 [12]. The cell lines were cultivated with the following reagents: DMEM High Glucose, fetal bovine serum (FBS), Penicillin-Streptomycin Solution 100×, and Trypsin-EDTA 1×; all were purchased from Biowest, and G418 was from ThermoFisher Scientific. For the ELFI experiments, cells were seeded (8000/well) on a PDL-treated 96-well plate (BioCoat™, Corning Inc., Corning, NY, USA) and 6-well plate (400,000/well) for lysate collection and immunoblot analysis.
In the orthosteric agonist mode experiments, starved cells (5 h) were treated with compounds (0.125–100 μM; volume, 100 μL/well) or BDNF (0.01–10 nM; volume, 100 μL/well) dissolved in culture medium. In the allosteric modulation mode experiments, starved cells (5 h) were treated with final compound concentrations of 3, 10, and 30 μM; volume, 50 μL/well) in the presence of a rising concentration of BDNF (final concentration in well, 0.15–5 nM; volume, 50 μL/well). Corresponding treatment with DMSO (v/v) was performed for a control. Cells were treated for 15 min in both the orthosteric and allosteric modulation mode experiments.
The analysis of TrkB receptor activation was performed using the ELFI method adapted from Boltayev et al. (2017) with some modifications. After compound treatment, experiments were stopped by fixing cells with 10% buffered formalin (Kolchem, Lodz, Poland) for 20 min (volume, 100 μL/well). Afterwards, cells were permeabilized with washing buffer (TBS+ 0.1% Tween20) for 15 min, and endogenous peroxidases were quenched by 20 min of incubation with 1% H2O2 dissolved in TBS (each solution: volume, 100 μL/well). Epitopes were blocked with 10% BSA (Biowest) dissolved in washing buffer for 2 h (volume, 100 μL/well) and incubated with anti-pTrkB (Tyr707) primary antibody (Cell Signaling Technology, Danvers, MA, USA) diluted in washing buffer (1:500; overnight at 4 °C; volume, 100 μL/well). After repeated washing, cells were incubated with HRP-linked anti-rabbit antibody (Cell Signaling Technology) for 2 h (1:1000; RT; volume, 100 μL/well) and washed. The cells were then incubated with 100 μL of ImmunoCruz™ Western Blotting Luminol (Santa Cruz Biotechnology, Dallas, TX, USA) for 1 min in the dark, and the signals were measured using a microplate luminometer (VICTOR Light 1420-060, PerkinElmer®, Waltham, MA, USA). For non-specific binding, cells were treated, with the exception of primary antibody.

[5] = pH 7.4
[6] = Metabolic stability in mouse liver microsomes; details: for Metabolic stability in MLM (classification): compared with verapamil; for Clint MLM: 1 μM, phase I
[7] = PAMPA; details: for PAMPA: 10 μM, 4 h
[8] = Caco-2 passive permeability; details: human, Caco-2, with 5 μM elacridar and 20 μM cyclosporine A
[9] = tested on: Caco-2 monolayer; assay: Caco-2 passive permeability; details: for Papp,AB: Caco-2, apical to basal; for Papp,AB / Papp,BA: 2 h; for Papp,BA: Caco-2, basal to apical
[10] = in vivo; assay type: in vivo, BALB/c mice; details: mouse, in vivo
Method: The animals were obtained from the Center of Experimental Medicine (University of Bialystok, Bialystok, Poland) and housed under standard laboratory conditions. Mice had unlimited access to water and food. All the procedures were conducted according to the guidelines of the local ethical commission (appl no. 06/2019, perm. no 10/2019). […] Four animals per time point were sacrificed at 10 min, 30 min, 1 h, 2 h, and 4 h after per os administration and 5 min, 10 min, 30 min, 1 h, and 2 h after i.v. administration. The blood (0.5 mL) was collected by heart puncture using probes with anticoagulants (K2EDTA). Plasma samples were obtained by blood centrifugation (15 min, 3000× g at 23 °C). The whole brain was dissected from the skull and washed with cold 0.9% NaCl on ice. The left hemisphere was quickly frozen in liquid nitrogen and stored at −80 °C for further bioanalytical analysis. From the right hemisphere, the hippocampus and frontal cortex were isolated, weighed, and stored at −80 °C after freezing in liquid nitrogen. Isolated structures were homogenized in N-PER cocktail (10 μL for every 1 mg of tissue) using a hand homogenizer, and then processed as described in Section 4.3.3.
For bioanalytical evaluation, brain samples were homogenized in water (3 mL for every 1 g of brain tissue). Plasma and brain samples were then prepared by precipitating proteins and extracting analytes using acetonitrile with the addition of the internal standard: 150 μL of extraction solution was added to 50 μL of biological material, mixed for 1 min and centrifuged (12,900 RPM, 4 min, 4 °C), and the supernatant was collected for analysis. Standard solutions including calibration standards and quality control samples were prepared by spiking 45 μL of biological material with 5 μL of standard working solution, adding 150 μL of extraction solution, and then mixing, centrifuging, and collecting the supernatant for analysis. The concentrations of analytes in the plasma and brain samples were determined using a UPLC-MS/MS instrument (Agilent Technologies) and chromatographic columns (Agilent Zorbax Eclipse 50 × 2.1 mm; 1.7 μm).

T1 sequence (Q16620 32-430): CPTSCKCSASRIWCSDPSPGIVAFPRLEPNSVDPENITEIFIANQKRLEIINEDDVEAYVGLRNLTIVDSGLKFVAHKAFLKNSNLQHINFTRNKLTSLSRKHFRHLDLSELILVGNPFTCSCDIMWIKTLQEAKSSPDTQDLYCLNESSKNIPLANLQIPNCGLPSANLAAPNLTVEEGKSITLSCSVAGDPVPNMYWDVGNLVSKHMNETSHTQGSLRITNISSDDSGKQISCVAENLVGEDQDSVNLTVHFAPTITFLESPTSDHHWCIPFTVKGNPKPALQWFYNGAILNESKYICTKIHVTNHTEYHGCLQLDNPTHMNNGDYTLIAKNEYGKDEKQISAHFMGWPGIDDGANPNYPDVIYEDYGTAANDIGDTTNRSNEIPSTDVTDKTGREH
T2 sequence (Q63604 32-821): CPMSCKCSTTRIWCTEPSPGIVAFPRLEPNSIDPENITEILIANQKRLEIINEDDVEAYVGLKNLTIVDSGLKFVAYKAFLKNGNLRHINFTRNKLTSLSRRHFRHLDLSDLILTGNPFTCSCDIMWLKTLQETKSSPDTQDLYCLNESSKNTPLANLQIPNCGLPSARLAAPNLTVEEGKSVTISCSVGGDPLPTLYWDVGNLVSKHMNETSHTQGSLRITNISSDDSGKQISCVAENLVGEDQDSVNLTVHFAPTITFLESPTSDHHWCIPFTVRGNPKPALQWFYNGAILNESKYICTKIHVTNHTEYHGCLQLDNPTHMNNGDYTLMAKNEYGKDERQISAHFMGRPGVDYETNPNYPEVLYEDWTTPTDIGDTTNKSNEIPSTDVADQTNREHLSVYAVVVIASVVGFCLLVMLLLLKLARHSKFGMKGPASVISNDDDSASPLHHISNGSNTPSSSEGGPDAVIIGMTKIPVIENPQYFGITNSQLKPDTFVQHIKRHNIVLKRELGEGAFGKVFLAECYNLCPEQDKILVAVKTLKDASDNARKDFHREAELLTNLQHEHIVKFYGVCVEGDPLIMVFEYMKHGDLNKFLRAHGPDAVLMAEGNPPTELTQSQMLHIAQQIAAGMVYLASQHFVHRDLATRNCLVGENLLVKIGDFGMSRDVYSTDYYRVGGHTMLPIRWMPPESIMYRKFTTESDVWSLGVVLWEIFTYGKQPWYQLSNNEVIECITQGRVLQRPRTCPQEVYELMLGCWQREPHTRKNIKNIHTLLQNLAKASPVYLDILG

| Compound | Chemical Stability [% of Degradation] [1] | Metabolic stability in HLM (classification) [2] | Binding to the exTrkB receptor [3] | Orthosteric activity (induction of TrkB phosphorylation) [4] | Kinetic Solubility [5] | Metabolic stability in MLM (classification) [6] | PAMPA [7] | Clint HLM [2] | Permeability in Caco-2 system (good permeability) [9] | Papp,AB [9] | Papp,BA [9] | Clint MLM [6] | Permeability in PAMPA assay (good permeability) [7] | other results |
| --- | --- | --- | --- | --- | --- | --- | --- | --- | --- | --- | --- | --- | --- | --- |
| NCCCC[C@H](NC(=O)[C@H](CO)NC(=O)CCC(=O)O)C(=O)NCCCCCCNC(=O)[C@H](CCCCN)NC(=O)[C@H](CO)NC(=O)CCC(=O)O [GSB-106, [OH-Suc-Ser-Lys-NH-(CH2)3-]2] | Stable | instability of this compound in the experimental system | not observed | did not observe any orthosteric activity | 152.7 µM | instability of this compound in the experimental system | 0.85 10^−6·cm/s | – | – | – | – | – | – | – |
| COc1ccc(-c2cc3cccc(O)c3c(=O)o2)cc1 [Isocumarin, 8-hydroxy-3-(4′-methoxyphenyl)-isocumarin] | Stable | highly unstable | not observed | did not observe any orthosteric activity | – | highly unstable | 0.22 10^−6·cm/s | – | – | – | – | – | – | microsomal CLint at 1 μM ([2]; human, liver microsomes): 781 µL/min/mg; Papp A→B at 2 h [8]: 1.6 ×10⁻⁶ cm/s; Papp B→A at 2 h [8]: 2.18 ×10⁻⁶ cm/s; microsomal CLint at 1 μM ([6]; mouse, liver microsomes): 407 µL/min/mg |
| CC(C)CCNc1ncccc1C(=O)N1CCN(Cc2ccccc2)CC1 [NSI-189] | 0.65% | highly unstable | not observed | did not observe any orthosteric activity | 500 µM | highly unstable | 8.91 10^−6·cm/s | 466.6 μL·min^−1·mgprotein^−1 | > 10^−6 cm/s | 28.23 10^−6·cm/s | 13.22 10^−6·cm/s | 1316.7 μL·min^−1·mgprotein^−1 | > 10^−6 cm/s | – |
| OCCN(CCO)c1ccc(C(c2ccc(Cl)cc2)c2ccc(N(CCO)CCO)cc2)cc1 [LM22-B10] | 4.18% | moderately stable | not observed | did not observe any orthosteric activity | – | stable | 2.36 10^−6·cm/s | 29 μL·min^−1·mgprotein^−1 | – | 6.47 10^−6·cm/s | 4.97 10^−6·cm/s | 4.8 μL·min^−1·mgprotein^−1 | – | pKd ([3]; non-binding compounds given as 0): 4.08 |
| CN(C)c1ccc(-c2cc(=O)c3ccc(O)c(O)c3o2)cc1 [4′-dimethylamino-7,8-DHF] | 1.31% | highly unstable | not observed | did not observe any orthosteric activity | – | highly unstable | 15.5 10^−6·cm/s | 175.7 μL·min^−1·mgprotein^−1 | > 10^−6 cm/s | 15.61 10^−6·cm/s | 9.03 10^−6·cm/s | 365.1 μL·min^−1·mgprotein^−1 | > 10^−6 cm/s | – |
| 7-hydroxy-8-methoxyflavone (7H8M-flavone) and 8-hydroxy-7-methoxyflavone (8H7M-flavone) [7H8M-flavone 8H7M-flavone] | – | – | – | – | – | – | – | – | – | – | – | – | – | C brain, individual mice ([10]; 50 mg/kg): < LLQ; C brain, individual mice ([10]; iv, 1 mg/kg): < LLQ; C plasma, individual mice ([10]; iv, 1 mg/kg): < LLQ; Time of maximal plasma concentration ([10]; iv, 1 mg/kg): 5 min; Time of maximal plasma concentration ([10]; po, 50 mg/kg): 10 min |
